Data as given in the supplement of paper PMC12076712.

Assays:
Test in all cases: pIC50, kinobeads binding competition
[1] = molecular target: T1, UniProt P51955
T1 sequence (whole entry): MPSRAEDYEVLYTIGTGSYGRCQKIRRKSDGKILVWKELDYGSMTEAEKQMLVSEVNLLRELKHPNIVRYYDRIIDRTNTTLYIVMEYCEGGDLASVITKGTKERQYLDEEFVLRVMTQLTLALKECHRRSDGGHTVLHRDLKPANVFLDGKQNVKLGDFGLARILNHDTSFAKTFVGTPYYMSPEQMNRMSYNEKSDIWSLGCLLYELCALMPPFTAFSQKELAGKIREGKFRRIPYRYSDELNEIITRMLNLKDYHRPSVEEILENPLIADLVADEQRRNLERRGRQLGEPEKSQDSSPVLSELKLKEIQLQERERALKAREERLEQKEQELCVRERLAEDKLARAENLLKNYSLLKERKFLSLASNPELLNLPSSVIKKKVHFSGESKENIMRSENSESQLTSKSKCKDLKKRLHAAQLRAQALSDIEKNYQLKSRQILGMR
In short: (§1)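 pIC50 was obtained by fitting fold changes against vehicle to logistic dose-response curves with the R drc package, using biological duplicates. Kinobeads-bound proteins were digested and measured by TMT10 LC-MS/MS. Before this, either living Jurkat cells received nine compound concentrations (top 30 μM, 1:4 steps) for 60 min at 37 °C prior to lysis, or Jurkat lysate or a 1:1:1:1 HEK293/K-562/HepG2/placenta lysate mix received nine concentrations (top 30 μM, 1:5 steps) for 60 min at 4 °C.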

[2] = molecular target: PCTK3 (UniProt Q07002)
In short: as §1

[3] = molecular target: T2, LATS1 (UniProt O95835)
T2 sequence (whole entry): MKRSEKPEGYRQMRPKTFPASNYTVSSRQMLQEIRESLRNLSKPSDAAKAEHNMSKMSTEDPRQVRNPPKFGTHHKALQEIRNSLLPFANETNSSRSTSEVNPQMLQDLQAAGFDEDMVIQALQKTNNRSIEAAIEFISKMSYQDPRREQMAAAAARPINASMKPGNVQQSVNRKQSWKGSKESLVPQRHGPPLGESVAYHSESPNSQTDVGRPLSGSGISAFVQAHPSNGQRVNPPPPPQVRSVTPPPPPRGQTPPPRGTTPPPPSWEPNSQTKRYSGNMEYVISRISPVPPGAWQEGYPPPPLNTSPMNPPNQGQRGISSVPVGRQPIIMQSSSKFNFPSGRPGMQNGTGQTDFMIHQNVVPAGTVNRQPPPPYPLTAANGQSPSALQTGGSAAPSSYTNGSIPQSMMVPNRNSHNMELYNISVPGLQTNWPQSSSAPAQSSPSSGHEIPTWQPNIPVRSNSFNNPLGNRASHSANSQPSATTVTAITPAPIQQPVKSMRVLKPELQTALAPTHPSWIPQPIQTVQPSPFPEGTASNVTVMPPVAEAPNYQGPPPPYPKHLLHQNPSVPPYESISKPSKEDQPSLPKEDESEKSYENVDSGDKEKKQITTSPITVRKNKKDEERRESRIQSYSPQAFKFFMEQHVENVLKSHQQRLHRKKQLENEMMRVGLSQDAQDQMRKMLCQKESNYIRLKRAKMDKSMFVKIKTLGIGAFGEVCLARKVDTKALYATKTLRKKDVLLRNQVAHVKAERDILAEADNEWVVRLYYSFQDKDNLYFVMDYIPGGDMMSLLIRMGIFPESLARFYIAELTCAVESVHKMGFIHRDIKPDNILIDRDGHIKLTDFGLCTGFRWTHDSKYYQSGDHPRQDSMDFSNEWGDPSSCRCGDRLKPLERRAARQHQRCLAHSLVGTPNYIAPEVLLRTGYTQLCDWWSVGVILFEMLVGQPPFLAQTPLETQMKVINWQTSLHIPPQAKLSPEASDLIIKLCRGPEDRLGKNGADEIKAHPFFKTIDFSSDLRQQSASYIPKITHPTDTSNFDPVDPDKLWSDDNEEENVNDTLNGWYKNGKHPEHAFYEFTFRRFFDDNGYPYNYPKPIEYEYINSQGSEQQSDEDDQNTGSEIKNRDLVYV
In short: as §1

[4] = molecular target: T3, IRAK4 (UniProt Q9NWZ3)
T3 sequence (whole entry): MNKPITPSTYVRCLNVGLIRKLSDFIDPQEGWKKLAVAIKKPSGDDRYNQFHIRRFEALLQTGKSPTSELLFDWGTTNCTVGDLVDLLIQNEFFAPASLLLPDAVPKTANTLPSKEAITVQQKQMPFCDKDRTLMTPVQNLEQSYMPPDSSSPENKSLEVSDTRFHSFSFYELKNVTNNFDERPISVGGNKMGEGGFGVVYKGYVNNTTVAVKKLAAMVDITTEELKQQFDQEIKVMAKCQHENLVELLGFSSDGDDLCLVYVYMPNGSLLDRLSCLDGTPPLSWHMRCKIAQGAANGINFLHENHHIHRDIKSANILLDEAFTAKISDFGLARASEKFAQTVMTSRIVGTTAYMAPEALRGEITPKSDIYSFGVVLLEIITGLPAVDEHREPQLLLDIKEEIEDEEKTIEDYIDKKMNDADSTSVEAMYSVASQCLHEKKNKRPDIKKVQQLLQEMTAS
In short: as §1

[5] = molecular target: EGFR (UniProt P00533); settings: cell material: Lysate mix
In short: as §1

[6] = molecular target: FGR (UniProt P09769)
In short: as §1

[7] = molecular target: UniProt P07947
In short: as §1

Chain of FGR (P09769 whole entry, looked up): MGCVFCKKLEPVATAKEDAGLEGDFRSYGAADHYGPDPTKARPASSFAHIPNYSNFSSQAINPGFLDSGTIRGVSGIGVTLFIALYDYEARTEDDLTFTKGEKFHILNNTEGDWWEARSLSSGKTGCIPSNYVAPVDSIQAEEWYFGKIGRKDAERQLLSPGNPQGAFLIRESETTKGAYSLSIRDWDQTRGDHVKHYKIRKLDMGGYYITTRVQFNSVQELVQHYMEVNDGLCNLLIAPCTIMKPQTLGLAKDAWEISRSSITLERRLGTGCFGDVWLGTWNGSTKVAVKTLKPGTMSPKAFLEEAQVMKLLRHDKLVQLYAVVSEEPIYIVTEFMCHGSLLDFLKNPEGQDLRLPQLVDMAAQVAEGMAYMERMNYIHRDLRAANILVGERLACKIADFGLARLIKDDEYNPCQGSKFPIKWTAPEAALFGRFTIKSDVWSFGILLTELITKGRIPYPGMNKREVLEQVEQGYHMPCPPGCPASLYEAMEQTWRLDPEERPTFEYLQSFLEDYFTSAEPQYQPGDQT
Chain of UniProt P07947 (P07947 whole entry, looked up): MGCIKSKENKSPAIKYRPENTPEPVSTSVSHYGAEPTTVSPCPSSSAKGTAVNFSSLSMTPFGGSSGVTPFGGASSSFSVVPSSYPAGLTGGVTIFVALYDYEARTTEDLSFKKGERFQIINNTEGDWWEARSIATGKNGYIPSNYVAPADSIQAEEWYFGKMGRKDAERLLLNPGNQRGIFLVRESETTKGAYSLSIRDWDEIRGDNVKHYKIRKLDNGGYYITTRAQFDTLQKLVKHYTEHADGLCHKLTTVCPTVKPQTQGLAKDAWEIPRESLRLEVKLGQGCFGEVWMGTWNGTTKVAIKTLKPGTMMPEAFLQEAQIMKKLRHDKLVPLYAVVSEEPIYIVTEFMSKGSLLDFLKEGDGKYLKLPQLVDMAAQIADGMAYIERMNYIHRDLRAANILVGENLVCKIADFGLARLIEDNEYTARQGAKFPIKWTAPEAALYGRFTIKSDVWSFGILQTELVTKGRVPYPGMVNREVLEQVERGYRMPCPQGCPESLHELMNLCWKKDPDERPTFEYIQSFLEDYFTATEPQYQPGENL
Chain of PCTK3 (Q07002 whole entry): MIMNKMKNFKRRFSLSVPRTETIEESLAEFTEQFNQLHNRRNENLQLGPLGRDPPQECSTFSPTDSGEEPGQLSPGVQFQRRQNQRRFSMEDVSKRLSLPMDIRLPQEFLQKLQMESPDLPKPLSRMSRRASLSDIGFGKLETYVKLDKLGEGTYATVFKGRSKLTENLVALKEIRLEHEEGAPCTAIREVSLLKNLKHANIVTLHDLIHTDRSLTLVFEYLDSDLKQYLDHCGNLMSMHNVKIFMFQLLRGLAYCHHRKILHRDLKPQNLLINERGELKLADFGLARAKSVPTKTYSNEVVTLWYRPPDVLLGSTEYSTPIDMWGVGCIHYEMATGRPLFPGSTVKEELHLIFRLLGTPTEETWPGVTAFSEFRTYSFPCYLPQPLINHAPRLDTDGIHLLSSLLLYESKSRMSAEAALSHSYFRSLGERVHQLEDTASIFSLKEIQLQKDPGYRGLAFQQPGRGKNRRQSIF
Chain of EGFR (P00533 whole entry): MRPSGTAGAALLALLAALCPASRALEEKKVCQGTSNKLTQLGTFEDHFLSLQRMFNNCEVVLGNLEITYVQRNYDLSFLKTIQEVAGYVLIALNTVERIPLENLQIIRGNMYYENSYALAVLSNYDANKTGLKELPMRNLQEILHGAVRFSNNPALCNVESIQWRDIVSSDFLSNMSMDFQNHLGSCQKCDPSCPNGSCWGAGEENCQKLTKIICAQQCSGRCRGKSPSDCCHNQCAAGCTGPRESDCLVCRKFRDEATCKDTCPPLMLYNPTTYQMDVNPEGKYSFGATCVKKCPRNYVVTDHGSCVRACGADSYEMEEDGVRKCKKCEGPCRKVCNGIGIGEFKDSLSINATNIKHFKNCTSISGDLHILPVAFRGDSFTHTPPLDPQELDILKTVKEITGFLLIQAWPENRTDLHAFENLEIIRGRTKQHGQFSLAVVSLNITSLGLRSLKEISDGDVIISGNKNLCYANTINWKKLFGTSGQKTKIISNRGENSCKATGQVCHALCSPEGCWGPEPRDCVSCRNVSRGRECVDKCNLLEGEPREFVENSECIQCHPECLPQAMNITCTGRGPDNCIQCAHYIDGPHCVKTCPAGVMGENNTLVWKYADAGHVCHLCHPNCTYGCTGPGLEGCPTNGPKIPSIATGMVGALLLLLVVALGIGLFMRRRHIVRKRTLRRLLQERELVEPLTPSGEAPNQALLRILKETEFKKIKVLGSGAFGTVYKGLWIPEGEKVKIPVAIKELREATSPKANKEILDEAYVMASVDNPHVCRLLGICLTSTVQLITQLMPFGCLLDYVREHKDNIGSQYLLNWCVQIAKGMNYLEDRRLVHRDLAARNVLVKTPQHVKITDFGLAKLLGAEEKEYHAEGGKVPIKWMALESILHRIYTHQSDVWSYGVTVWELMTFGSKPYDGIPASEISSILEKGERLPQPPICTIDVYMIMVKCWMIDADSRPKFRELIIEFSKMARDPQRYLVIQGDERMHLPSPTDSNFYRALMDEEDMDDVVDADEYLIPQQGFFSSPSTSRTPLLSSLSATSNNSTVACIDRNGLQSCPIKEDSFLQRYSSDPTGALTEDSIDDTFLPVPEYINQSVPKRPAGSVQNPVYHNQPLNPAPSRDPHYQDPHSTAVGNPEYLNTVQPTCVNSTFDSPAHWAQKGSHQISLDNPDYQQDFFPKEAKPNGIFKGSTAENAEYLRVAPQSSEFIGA

Compound	pIC50 ([1]; cell material: Jurkat cells)	pIC50 ([1]; cell material: Jurkat lysate)	pIC50 ([1]; cell material: Lysate mix)	pIC50 ([2]; cell material: Jurkat cells)	pIC50 ([2]; cell material: Jurkat lysate)	pIC50 ([2]; cell material: Lysate mix)	pIC50 ([3]; cell material: Jurkat cells)	pIC50 ([3]; cell material: Jurkat lysate)	pIC50 ([3]; cell material: Lysate mix)	pIC50 ([4]; cell material: Jurkat cells)	pIC50 ([4]; cell material: Jurkat lysate)	pIC50 ([4]; cell material: Lysate mix)	pIC50 [5]	pIC50 ([6]; cell material: Jurkat cells)	pIC50 ([6]; cell material: Jurkat lysate)	pIC50 ([7]; cell material: Jurkat cells)	pIC50 ([7]; cell material: Jurkat lysate)	pIC50 ([7]; cell material: Lysate mix)	pIC50 ([6]; cell material: Lysate mix)
O=C(NCCNC(=O)c1cc(Nc2cc(C3CC3)[nH]n2)nc(N2CCN(Cc3ccc(S(=O)(=O)F)cc3)CC2)n1)OC1CC/C=C/CCC1 (centres undefined)	6.24	< 4.52	< 4.52	5.7	< 4.52	< 4.52	5.78	< 4.52	< 4.52	5.24	< 4.52	< 4.52	< 4.52	5.92	< 4.52	6.18	4.62	5.24	–
Cc1cc(Nc2cc(C(=O)NCCNC(=O)OC3CC/C=C/CCC3)nc(N3CCN(Cc4ccc(S(=O)(=O)F)cc4)CC3)n2)n[nH]1 (centres undefined)	–	–	< 4.52	–	–	< 4.52	–	–	< 4.52	–	–	< 4.52	< 4.52	–	–	–	–	5.25	< 4.52
CCNC(=O)c1cc(Nc2cc(C3CC3)[nH]n2)nc(N2CCN(Cc3ccc(S(=O)(=O)F)cc3)CC2)n1	–	–	5.69	–	–	5.36	–	–	5.3	–	–	5.19	5.3	–	–	–	–	6.44	5.92
CCNC(=O)c1cc(Nc2cc(C)[nH]n2)nc(N2CCN(Cc3ccc(S(=O)(=O)F)cc3)CC2)n1	–	–	4.67	–	–	< 4.52	–	–	< 4.52	–	–	< 4.52	5.78	–	–	–	–	7.16	5.92
C#CCNC(=O)c1cc(Nc2cc(C3CC3)[nH]n2)nc(N2CCN(Cc3ccc(S(=O)(=O)F)cc3)CC2)n1	6.69	5.41	5.87	6.2	< 4.52	5.2	6.2	4.7	5.56	6.03	4.62	5.06	5.4	–	5.6	6.61	5.84	6.62	6.2
C#CCNC(=O)c1cc(Nc2cc(C)[nH]n2)nc(N2CCN(Cc3ccc(S(=O)(=O)F)cc3)CC2)n1	–	–	4.81	–	–	< 4.52	–	–	4.65	–	–	< 4.52	5.56	–	–	–	–	6.3	5.51
